Laboratory results published in PubChem BioAssay AID272 (DTP/NCI, 2004).
Values joined by “and” are separate entries in the source; they are usually repeats but may differ in a detail not shown here. Equal values may be shown once. Inconclusive results are not listed.

System: Lewis lung carcinoma i.m., BDF1 mice, T/C %
Experiment: NCI In Vivo Anticancer Drug Screen. Data for tumor model Lewis Lung Carcinoma (intramuscular) in B6D2F1 (BDF1) mice
Procedure, shortened: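 Tumour-bearing mice were dosed with compound, and either their survival or their tumour size was measured. Results were expressed relative to vehicle-treated controls as T/C.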

## Cc1c(N)nc([C@H](CC(N)=O)NC[C@H](N)C(N)=O)nc1C(=O)N[C@H](C(=O)N[C@H](C)[C@@H](O)[C@H](C)C(=O)N[C@H](C(=O)NCCc1nc(-c2nc(C(=O)NCCC[S+](C)C)cs2)cs1)[C@@H](C)O)C(OC1OC(CO)C(O)C(O)C1OC1OC(CO)C(O)C(OC(N)=O)C1O)c1cnc[nH]1 (some centres not stated)
endpoint: mean tumor weight (est.), dose: 2.5 mg/kg/injection, schedule: Q01DX009 (ip), vehicle: saline, higher = larger tumour
  T/C: 44 % of control
endpoint: mean tumor weight (est.), dose: 8.4 mg/kg/injection, schedule: Q01DX009 (ip), vehicle: saline, higher = larger tumour
  T/C: 24 % of control and 42 % of control
endpoint: mean tumor weight (est.), dose: 14.0 mg/kg/injection, schedule: Q01DX009 (ip), vehicle: saline, higher = larger tumour
  T/C: 27 % of control and 37 % of control
endpoint: mean tumor weight (est.), dose: 23.0 mg/kg/injection, schedule: Q01DX009 (ip), vehicle: saline, higher = larger tumour
  T/C: 14 % of control and 26 % of control
endpoint: mean tumor weight (est.), dose: 39.0 mg/kg/injection, schedule: Q01DX009 (ip), vehicle: saline, higher = larger tumour
  T/C: 12 % of control
endpoint: mean tumor weight, dose: 3.0 mg/kg/injection, schedule: Q01DX011 (ip), vehicle: saline, higher = larger tumour
  T/C: 38 % of control
endpoint: mean tumor weight, dose: 3.75 mg/kg/injection, schedule: Q01DX011 (sc), vehicle: saline, higher = larger tumour
  T/C: 60 % of control
endpoint: mean tumor weight, dose: 4.0 mg/kg/injection, schedule: Q01DX011 (ip), vehicle: saline, higher = larger tumour
  T/C: 18 % of control
endpoint: mean tumor weight, dose: 5.0 mg/kg/injection, schedule: Q01DX011 (ip), vehicle: saline, higher = larger tumour
  T/C: 12 % of control and 15 % of control
endpoint: mean tumor weight, dose: 6.0 mg/kg/injection, schedule: Q01DX011 (ip), vehicle: saline, higher = larger tumour
  T/C: 19 % of control
endpoint: mean tumor weight, dose: 7.5 mg/kg/injection, schedule: Q01DX011 (sc), vehicle: saline, higher = larger tumour
  T/C: 23 % of control
endpoint: mean tumor weight, dose: 8.4 mg/kg/injection, schedule: Q01DX011 (ip), vehicle: saline, higher = larger tumour
  T/C: 7 % of control
endpoint: mean tumor weight, dose: 8.5 mg/kg/injection, schedule: Q01DX011 (ip), vehicle: saline, higher = larger tumour
  T/C: 19 % of control
endpoint: mean tumor weight, dose: 10.0 mg/kg/injection, schedule: Q04DX003 (ip), vehicle: saline, higher = larger tumour
  T/C: 56 % of control
endpoint: mean tumor weight, dose: 12.5 mg/kg/injection, schedule: Q04DX003 (ip), vehicle: saline, higher = larger tumour
  T/C: 23 % of control
endpoint: mean tumor weight, dose: 14.0 mg/kg/injection, schedule: Q01DX011 (ip), vehicle: saline, higher = larger tumour
  T/C: 6 % of control
endpoint: mean tumor weight, dose: 18.0 mg/kg/injection, schedule: Q04DX003 (ip), vehicle: saline, higher = larger tumour
  T/C: 35 % of control
endpoint: mean tumor weight, dose: 20.0 mg/kg/injection, schedule: Q01DX011 (ip), vehicle: saline, higher = larger tumour
  T/C: 2 % of control and 12 % of control
endpoint: mean tumor weight, dose: 20.0 mg/kg/injection, schedule: Q04DX003 (ip), vehicle: saline, higher = larger tumour
  T/C: 43 % of control
endpoint: mean tumor weight, dose: 23.0 mg/kg/injection, schedule: Q01DX011 (ip), vehicle: saline, higher = larger tumour
  T/C: 5 % of control
endpoint: mean tumor weight, dose: 23.0 mg/kg/injection, schedule: Q04DX003 (ip), vehicle: saline, higher = larger tumour
  T/C: 40 % of control
endpoint: mean tumor weight, dose: 25.0 mg/kg/injection, schedule: Q01DX001 (ip), vehicle: saline, higher = larger tumour
  T/C: 51 % of control
endpoint: mean tumor weight, dose: 25.0 mg/kg/injection, schedule: Q04DX003 (ip), vehicle: saline, higher = larger tumour
  T/C: 18 % of control
endpoint: mean tumor weight, dose: 36.0 mg/kg/injection, schedule: Q01DX001 (ip), vehicle: saline, higher = larger tumour
  T/C: 65 % of control
endpoint: mean tumor weight, dose: 36.0 mg/kg/injection, schedule: Q04DX003 (ip), vehicle: saline, higher = larger tumour
  T/C: 18 % of control
endpoint: mean tumor weight, dose: 39.0 mg/kg/injection, schedule: Q04DX003 (ip), vehicle: saline, higher = larger tumour
  T/C: 19 % of control
endpoint: mean tumor weight, dose: 40.0 mg/kg/injection, schedule: Q04DX003 (ip), vehicle: saline, higher = larger tumour
  T/C: 31 % of control
endpoint: mean tumor weight, dose: 51.0 mg/kg/injection, schedule: Q01DX001 (ip), vehicle: saline, higher = larger tumour
  T/C: 35 % of control
endpoint: median survival time, dose: 2.0 mg/kg/injection, schedule: Q01DX011 (ip), vehicle: saline, higher = longer survival
  T/C: 153 % of control
endpoint: median survival time, dose: 2.5 mg/kg/injection, schedule: Q01DX014 (ip), vehicle: saline, higher = longer survival
  T/C: 113 % of control
endpoint: median survival time, dose: 3.0 mg/kg/injection, schedule: Q01DX004 (ip), vehicle: saline, higher = longer survival
  T/C: 116 % of control
endpoint: median survival time, dose: 3.0 mg/kg/injection, schedule: Q09DX009 (ip), vehicle: saline, higher = longer survival
  T/C: 119 % of control and 120 % of control
endpoint: median survival time, dose: 3.75 mg/kg/injection, schedule: Q01DX011 (sc), vehicle: saline, higher = longer survival
  T/C: 158 % of control
endpoint: median survival time, dose: 4.0 mg/kg/injection, schedule: Q01DX011 (ip), vehicle: saline, higher = longer survival
  T/C: 119 % of control
endpoint: median survival time, dose: 5.0 mg/kg/injection, schedule: Q01DX004 (ip), vehicle: saline, higher = longer survival
  T/C: 123 % of control
endpoint: median survival time, dose: 5.0 mg/kg/injection, schedule: Q01DX009 (ip), vehicle: none, higher = longer survival
  T/C: 150 % of control and 163 % of control
endpoint: median survival time, dose: 5.0 mg/kg/injection, schedule: Q01DX011 (ip), vehicle: saline, higher = longer survival
  T/C: 150 % of control
endpoint: median survival time, dose: 5.0 mg/kg/injection, schedule: Q01DX014 (ip), vehicle: saline, higher = longer survival
  T/C: 123 % of control
endpoint: median survival time, dose: 5.0 mg/kg/injection, schedule: Q09DX009 (ip), vehicle: saline, higher = longer survival
  T/C: 150 % of control
endpoint: median survival time, dose: 6.5 mg/kg/injection, schedule: Q01DX011 (ip), vehicle: saline, higher = longer survival
  T/C: 158 % of control
endpoint: median survival time, dose: 7.5 mg/kg/injection, schedule: Q01DX011 (sc), vehicle: saline, higher = longer survival
  T/C: 153 % of control
endpoint: median survival time, dose: 8.0 mg/kg/injection, schedule: Q01DX011 (ip), vehicle: saline, higher = longer survival
  T/C: 150 % of control
endpoint: median survival time, dose: 8.4 mg/kg/injection, schedule: Q01DX004 (ip), vehicle: saline, higher = longer survival
  T/C: 123 % of control
endpoint: median survival time, dose: 8.4 mg/kg/injection, schedule: Q01DX009 (ip), vehicle: none, higher = longer survival
  T/C: 113 % of control and 115 % of control
endpoint: median survival time, dose: 8.4 mg/kg/injection, schedule: Q09DX009 (ip), vehicle: saline, higher = longer survival
  T/C: 116 % of control
endpoint: median survival time, dose: 10.0 mg/kg/injection, schedule: Q01DX011 (ip), vehicle: saline, higher = longer survival
  T/C: 167 % of control
endpoint: median survival time, dose: 10.0 mg/kg/injection, schedule: Q01DX014 (ip), vehicle: saline, higher = longer survival
  T/C: 124 % of control
endpoint: median survival time, dose: 10.0 mg/kg/injection, schedule: Q04DX003 (ip), vehicle: saline, higher = longer survival
  T/C: 107 % of control and 108 % of control
endpoint: median survival time, dose: 10.8 mg/kg/injection, schedule: Q01DX011 (ip), vehicle: saline, higher = longer survival
  T/C: 166 % of control
endpoint: median survival time, dose: 12.5 mg/kg/injection, schedule: Q04DX003 (ip), vehicle: saline, higher = longer survival
  T/C: 122 % of control
endpoint: median survival time, dose: 14.0 mg/kg/injection, schedule: Q01DX009 (ip), vehicle: none, higher = longer survival
  T/C: 159 % of control
endpoint: median survival time, dose: 14.0 mg/kg/injection, schedule: Q04DX003 (ip), vehicle: saline, higher = longer survival
  T/C: 112 % of control
endpoint: median survival time, dose: 15.0 mg/kg/injection, schedule: Q01DX011 (sc), vehicle: saline, higher = longer survival
  T/C: 161 % of control
endpoint: median survival time, dose: 16.0 mg/kg/injection, schedule: Q01DX011 (ip), vehicle: saline, higher = longer survival
  T/C: 150 % of control
endpoint: median survival time, dose: 18.0 mg/kg/injection, schedule: Q01DX011 (ip), vehicle: saline, higher = longer survival
  T/C: 152 % of control and 170 % of control
endpoint: median survival time, dose: 18.0 mg/kg/injection, schedule: Q04DX003 (ip), vehicle: saline, higher = longer survival
  T/C: 124 % of control
endpoint: median survival time, dose: 20.0 mg/kg/injection, schedule: Q01DX011 (ip), vehicle: saline, higher = longer survival
  T/C: 165 % of control
endpoint: median survival time, dose: 20.0 mg/kg/injection, schedule: Q01DX014 (ip), vehicle: saline, higher = longer survival
  T/C: 75 % of control
endpoint: median survival time, dose: 20.0 mg/kg/injection, schedule: Q04DX003 (ip), vehicle: saline, higher = longer survival
  T/C: 157 % of control and 160 % of control
endpoint: median survival time, dose: 23.0 mg/kg/injection, schedule: Q01DX009 (ip), vehicle: none, higher = longer survival
  T/C: 64 % of control and 95 % of control
endpoint: median survival time, dose: 23.0 mg/kg/injection, schedule: Q04DX003 (ip), vehicle: saline, higher = longer survival
  T/C: 112 % of control
endpoint: median survival time, dose: 23.0 mg/kg/injection, schedule: Q09DX009 (ip), vehicle: saline, higher = longer survival
  T/C: 169 % of control
endpoint: median survival time, dose: 25.0 mg/kg/injection, schedule: Q01DX001 (ip), vehicle: saline, higher = longer survival
  T/C: 107 % of control
endpoint: median survival time, dose: 30.0 mg/kg/injection, schedule: Q01DX011 (ip), vehicle: saline, higher = longer survival
  T/C: 166 % of control
endpoint: median survival time, dose: 36.0 mg/kg/injection, schedule: Q01DX001 (ip), vehicle: saline, higher = longer survival
  T/C: 124 % of control
endpoint: median survival time, dose: 39.0 mg/kg/injection, schedule: Q01DX004 (ip), vehicle: saline, higher = longer survival
  T/C: 54 % of control
endpoint: median survival time, dose: 39.0 mg/kg/injection, schedule: Q04DX003 (ip), vehicle: saline, higher = longer survival
  T/C: 103 % of control and 120 % of control
endpoint: median survival time, dose: 40.0 mg/kg/injection, schedule: Q01DX014 (ip), vehicle: saline, higher = longer survival
  T/C: 48 % of control
endpoint: median survival time, dose: 40.0 mg/kg/injection, schedule: Q04DX003 (ip), vehicle: saline, higher = longer survival
  T/C: 97 % of control
endpoint: median survival time, dose: 51.0 mg/kg/injection, schedule: Q01DX001 (ip), vehicle: saline, higher = longer survival
  T/C: 122 % of control
endpoint: median survival time, dose: 65.0 mg/kg/injection, schedule: Q04DX003 (ip), vehicle: saline, higher = longer survival
  T/C: 108 % of control
endpoint: median survival time, dose: 80.0 mg/kg/injection, schedule: Q04DX003 (ip), vehicle: saline, higher = longer survival
  T/C: 60 % of control
